pIC50: −log10 of the molar value.
How the values were obtained:
human Bub1 = human Bub1 (Homo sapiens (Human), UniProt O43683); test: Bub1 kinase assay (TR-FRET); format: biochemical; settings: 10 μM ATP; read-out: Bub1 avg (IC50 [mol/l])
Outline: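 His6-tagged human Bub1 catalytic domain (aa 704-1085, insect-cell expressed, ~200 ng/ml) preincubated with compound 15 min, then reacted 60 min at 22 °C with 10 μM ATP and 1 μM biotinylated peptide (final) in pH 7.5 Tris buffer. Phosphopeptide detected by TR-FRET 665/620 ratio, normalised to no-inhibitor and no-enzyme controls.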

CDK2/CycE = CDK2/CycE (Homo sapiens (Human), UniProt P24941); test: CDK2/CycE kinase assay (TR-FRET); format: biochemical; settings: 10 μM ATP; read-out: CDK2 avg (IC50 [mol/l])
Outline: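 GST-tagged human CDK2 and GST-CycE from Sf9 cells (~130 ng/ml) were preincubated with compound for 15 min at 22 °C. Reaction with 10 μM ATP and 0.75 μM biotinylated peptide (final) ran 25 min at 22 °C, pH 8.0. Phospho-peptide was read by TR-FRET (665/620 nm ratio, anti-pRB antibody, Eu donor) and normalised to no-enzyme and no-inhibitor controls.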

Sequence of human Bub1 (O43683 704-1085): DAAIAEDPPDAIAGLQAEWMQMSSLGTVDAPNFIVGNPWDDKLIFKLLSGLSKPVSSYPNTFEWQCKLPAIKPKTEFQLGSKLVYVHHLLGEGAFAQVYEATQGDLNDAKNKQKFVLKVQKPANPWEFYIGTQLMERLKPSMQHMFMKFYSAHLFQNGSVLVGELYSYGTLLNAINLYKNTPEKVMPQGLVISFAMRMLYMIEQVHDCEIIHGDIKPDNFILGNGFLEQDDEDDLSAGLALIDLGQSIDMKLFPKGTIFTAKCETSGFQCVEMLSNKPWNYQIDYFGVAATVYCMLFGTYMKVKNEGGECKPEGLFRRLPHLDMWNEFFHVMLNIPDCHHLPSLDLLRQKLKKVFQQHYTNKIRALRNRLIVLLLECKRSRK

For `Cc1nsc(Nc2cnccn2)c1C(=O)Nc1ccc(F)c(F)c1` [Example 65, N-(3,4-Difluorophenyl)-3-methyl-5-(pyrazin-2-ylamino)-1,2-thiazole-4-carboxamide], the pIC50 (human Bub1) was < 4.70 and the pIC50 (CDK2/CycE) was < 4.70.

With `Cc1nsc(Nc2ccc(C(F)(F)F)nn2)c1C(=O)Nc1ccc(F)c(F)c1` [Example 83, N-(3,4-Difluorophenyl)-3-methyl-5-{[6-(trifluoromethyl)pyridazin-3-yl]amino}-1,2-thiazole-4-carboxamide] the pIC50 (human Bub1) was < 4.70 and the pIC50 (CDK2/CycE) was < 4.70.

For `CCNc1cncc(Nc2snc(C)c2C(=O)Nc2ccc(F)c(F)c2)n1` [Example 78, N-(3,4-Difluorophenyl)-5-{[6-(ethylamino)pyrazin-2-yl]amino}-3-methyl-1,2-thiazole-4-carboxamide], the pIC50 (human Bub1) was < 4.70 and the pIC50 (CDK2/CycE) was < 4.70.

For `CNC(=O)c1cncc(Nc2snc(C)c2C(=O)Nc2ccc(F)c(F)c2)n1` [Example 70, 6-({4-[(3,4-Difluorophenyl)carbamoyl]-3-methyl-1,2-thiazol-5-yl}amino)-N-methylpyrazine-2-carboxamide], the pIC50 (human Bub1) was 5.77 and the pIC50 (CDK2/CycE) was < 4.70.

For `Cc1nsc(Nc2cncc(-c3ncco3)n2)c1C(=O)Nc1ccc(Cl)c(F)c1` [Example 63, N-(4-Chloro-3-fluorophenyl)-3-methyl-5-{[6-(1,3-oxazol-2-yl)pyrazin-2-yl]amino}-1,2-thiazole-4-carboxamide], the pIC50 (human Bub1) was < 4.70 and the pIC50 (CDK2/CycE) was < 4.70.

`COc1ccc(NC(=O)c2c(C)nsc2Nc2cnc3ccccc3n2)cn1` [Example 94, N-(6-Methoxypyridin-3-yl)-3-methyl-5-(quinoxalin-2-ylamino)-1,2-thiazole-4-carboxamide] was tested, and the pIC50 (human Bub1) was < 4.70 and the pIC50 (CDK2/CycE) was < 4.70.

In the case of `CCc1cncc(Nc2snc(C)c2C(=O)Nc2ccc(F)c(F)c2)n1` [Example 76, N-(3,4-Difluorophenyl)-5-[(6-ethylpyrazin-2-yl)amino]-3-methyl-1,2-thiazole-4-carboxamide], the pIC50 (human Bub1) was < 4.70 and the pIC50 (CDK2/CycE) was < 4.70.

`CNC(=O)c1cnc(Nc2snc(C)c2C(=O)Nc2ccc(F)c(F)c2)cn1` [Example 75, 5-({4-[(3,4-Difluorophenyl)carbamoyl]-3-methyl-1,2-thiazol-5-yl}amino)-N-methylpyrazine-2-carboxamide] was tested, and the pIC50 (human Bub1) was < 4.70 and the pIC50 (CDK2/CycE) was < 4.70.

`CCc1ccccc1NC(=O)c1c(C)nsc1Nc1cnc2cc(Cl)ccc2n1` [Example 86, 5-[(6-Chloroquinoxalin-2-yl)amino]-N-(2-ethylphenyl)-3-methyl-1,2-thiazole-4-carboxamide] was tested, and the pIC50 (human Bub1) was < 4.70 and the pIC50 (CDK2/CycE) was < 4.70.

In the case of `Cc1nsc(Nc2cnc3cc(C(F)(F)F)ccc3n2)c1C(=O)Nc1ccc(Cl)c(Cl)c1` [Example 61, N-(3,4-Dichlorophenyl)-3-methyl-5-{[6-(trifluoromethyl)quinoxalin-2-yl]amino}-1,2-thiazole-4-carboxamide], the pIC50 (human Bub1) was < 4.70 and the pIC50 (CDK2/CycE) was < 4.70.

For `CCOC(=O)c1cnc(Nc2snc(C)c2C(=O)Nc2ccccc2CC)s1` [Example 92, Ethyl 2-({4-[(2-ethylphenyl)-carbamoyl]-3-methyl-1,2-thiazol-5-yl}amino)-1,3-thiazole-5-carboxylate], the pIC50 (human Bub1) was < 4.70 and the pIC50 (CDK2/CycE) was < 4.70.

`CCc1ccccc1NC(=O)c1c(C)nsc1Nc1cc(C#N)ccn1` [Example 4, 5-[(4-Cyanopyridin-2-yl)amino]-N-(2-ethylphenyl)-3-methyl-1,2-thiazole-4-carboxamide] was tested, and the pIC50 (human Bub1) was < 4.70 and the pIC50 (CDK2/CycE) was < 4.70.

In the case of `COc1ccc(NC(=O)c2c(C)nsc2Nc2cncc(C(F)(F)F)n2)cn1` [Example 84, N-(6-methoxypyridin-3-yl)-3-methyl-5-{[6-(trifluoromethyl)pyrazin-2-yl]amino}-1,2-thiazole-4-carboxamide], the pIC50 (human Bub1) was < 4.70 and the pIC50 (CDK2/CycE) was < 4.70.

`CCOC(=O)c1sc(Nc2snc(C)c2C(=O)Nc2ccc(Cl)c(F)c2)nc1C` [Example 95, Ethyl 2-({4-[(4-chloro-3-fluoro-phenyl)carbamoyl]-3-methyl-1,2-thiazol-5-yl}amino)-4-methyl-1,3-thiazole-5-carboxylate] was tested, and the pIC50 (human Bub1) was < 4.70 and the pIC50 (CDK2/CycE) was < 4.70.

`CCNC(=O)c1cncc(Nc2snc(C)c2C(=O)Nc2ccc(F)c(F)c2)n1` [Example 73, 6-({4-[(3,4-Difluorophenyl)carbamoyl]-3-methyl-1,2-thiazol-5-yl}amino)-N-ethylpyrazine-2-carboxamide] was tested, and the pIC50 (human Bub1) was 5.21 and the pIC50 (CDK2/CycE) was < 4.70.

For `Cc1nsc(Nc2nc3c(C(F)(F)F)ccnc3s2)c1C(=O)Nc1ccc(F)c(F)c1` [Example 58, N-(3,4-Difluorophenyl)-3-methyl-5-{[7-(trifluoromethyl)[1,3]thiazolo[5,4-b]pyridin-2-yl]amino}-1,2-thiazole-4-carboxamide], the pIC50 (human Bub1) was < 4.70 and the pIC50 (CDK2/CycE) was < 4.70.

For `Cc1nsc(Nc2cnc(Cl)cn2)c1C(=O)Nc1ccc(F)c(F)c1` [Example 74, 5-[(5-Chloropyrazin-2-yl)amino]-N-(3,4-difluorophenyl)-3-methyl-1,2-thiazole-4-carboxamide], the pIC50 (human Bub1) was < 4.70 and the pIC50 (CDK2/CycE) was < 4.70.

`Cc1nsc(Nc2ccc(C#N)cn2)c1C(=O)Nc1ccc(Cl)c(Cl)c1` [Example 62, 5-[(5-Cyanopyridin-2-yl)amino]-N-(3,4-dichlorophenyl)-3-methyl-1,2-thiazole-4-carboxamide] was tested, and the pIC50 (human Bub1) was < 4.70 and the pIC50 (CDK2/CycE) was 5.19.

With `Cc1nsc(Nc2cnc(C(F)(F)F)cn2)c1C(=O)Nc1ccc(F)c(F)c1` [Example 81, N-(3,4-Difluorophenyl)-3-methyl-5-{[5-(trifluoromethyl)pyrazin-2-yl]amino}-1,2-thiazole-4-carboxamide] the pIC50 (human Bub1) was < 4.70 and the pIC50 (CDK2/CycE) was < 4.70.

With `Cc1nsc(Nc2cncc(-n3cccn3)n2)c1C(=O)Nc1ccc(Cl)c(F)c1` [Example 67, N-(4-Chloro-3-fluorophenyl)-3-methyl-5-{[6-(1H-pyrazol-1-yl)pyrazin-2-yl]amino}-1,2-thiazole-4-carboxamide] the pIC50 (human Bub1) was < 4.70.

For `CCc1ccccc1NC(=O)c1c(C)nsc1Nc1ncccc1C(F)(F)F` [Example 3, N-(2-Ethylphenyl)-3-methyl-5-{[3-(trifluoromethyl)pyridin-2-yl]amino}-1,2-thiazole-4-carboxamide], the pIC50 (human Bub1) was < 4.70 and the pIC50 (CDK2/CycE) was < 4.70.

For `CCc1ccccc1NC(=O)c1c(C)nsc1Nc1nc(C(=O)OC)co1` [Example 91, Methyl 2-({4-[(2-ethylphenyl)carbamoyl]-3-methyl-1,2-thiazol-5-yl}amino)-1,3-oxazole-4-carboxylate], the pIC50 (human Bub1) was < 4.70 and the pIC50 (CDK2/CycE) was < 4.70.

For `Cc1nsc(Nc2cnc3cc(C(F)(F)F)ccc3n2)c1C(=O)Nc1ccc(F)c(F)c1` [Example 60, N-(3,4-Difluorophenyl)-3-methyl-5-{[6-(trifluoromethyl)quinoxalin-2-yl]amino}-1,2-thiazole-4-carboxamide], the pIC50 (human Bub1) was < 4.70 and the pIC50 (CDK2/CycE) was < 4.70.

`Cc1nsc(Nc2cncc(-n3cccn3)n2)c1C(=O)Nc1ccc(F)c(F)c1` [Example 64, N-(3,4-Difluorophenyl)-3-methyl-5-{[6-(1H-pyrazol-1-yl)pyrazin-2-yl]amino}-1,2-thiazole-4-carboxamide] showed a pIC50 (CDK2/CycE) of 5.08.

Compound `Cc1nsc(Nc2cncc(C(F)(F)F)n2)c1C(=O)Nc1ccc(F)c(F)c1` [Example 82, N-(3,4-Difluorophenyl)-3-methyl-5-{[6-(trifluoromethyl)pyrazin-2-yl]amino}-1,2-thiazole-4-carboxamide] has a pIC50 (human Bub1) of 4.82.
